What was measured:
[1] = Inhibition of constitutively active VCAMss-Gluc secretion in human Flp-In-T-REx-293 cells measured by Gaussia luciferase reporter gene method; type: functional, cell-based
[2] = Inhibition of constitutively active PR1ss-Gluc secretion in human Flp-In-T-REx-293 cells measured by Gaussia luciferase reporter gene method; type: functional, cell-based
[3] = Inhibition of constitutively active VCAMss-Gluc secretion in human Flp-In-T-REx-293 cells at 2 uM measured by Gaussia luciferase reporter gene method relative to control; type: functional
[4] = Inhibition of constitutively active VCAMss-Gluc secretion in human Flp-In-T-REx-293 cells at 2.5 uM measured by Gaussia luciferase reporter gene method relative to control; type: functional
[5] = Inhibition of TNF-alpha-FL-Gluc secretion in doxycyclin-induced human Flp-In-T-REx-293 cells at 2.5 uM measured by Gaussia luciferase reporter gene method relative to control; type: functional
[6] = Inhibition of VCAMss-Gluc secretion in doxycyclin-induced human Flp-In-T-REx-293 cells measured by Gaussia luciferase reporter gene method; type: functional, cell-based
[7] = Inhibition of PD1ss-Gluc secretion in doxycyclin-induced human Flp-In-T-REx-293 cells measured by Gaussia luciferase reporter gene method; type: functional, cell-based
[8] = Inhibition of PR1ss-Gluc secretion in doxycyclin-induced human Flp-In-T-REx-293 cells measured by Gaussia luciferase reporter gene method; type: functional, cell-based
[9] = Inhibition of VCAMss-Gluc secretion in doxycyclin-induced human HEK293 cells measured by Gaussia luciferase reporter gene method; type: functional, cell-based
[10] = Inhibition of TNF-alpha-FL-Gluc secretion in doxycyclin-induced human Flp-In-T-REx-293 cells measured by Gaussia luciferase reporter gene method; type: functional, cell-based
[11] = Inhibition of VCAM expression in human Flp-In-T-REx-293 cells measured by cellular VCAMss-Gluc assay; type: functional, cell-based
[12] = Inhibition of VCAM expression in doxycyclin-induced human HEK293-T-REx cells measured by Gaussia luciferase reporter gene method; type: functional, cell-based
[13] = Inhibition of HER3 expression in doxycyclin-induced human HEK293-T-REx cells measured by Gaussia luciferase reporter gene method; type: functional, cell-based
[14] = Inhibition of TLR9 expression in doxycyclin-induced human HEK293-T-REx cells measured by Gaussia luciferase reporter gene method; type: functional, cell-based
[15] = Inhibition of ROS1 expression in doxycyclin-induced human HEK293-T-REx cells measured by Gaussia luciferase reporter gene method; type: functional, cell-based
[16] = Inhibition of PD1 expression in doxycyclin-induced human HEK293-T-REx cells measured by Gaussia luciferase reporter gene method; type: functional, cell-based

| Compound | IC50 [1] [µM] | IC50 [2] [µM] | inhibition at 2 µM [3] [%] | IC50 [7] [µM] | IC50 [8] [µM] | other results |
| --- | --- | --- | --- | --- | --- | --- |
| CC(C)(C)c1csc(NC(=O)c2ccc3c(c2)CCCC3)n1 | 10.9 | > 25 | 20 | – | – | – |
| CC(C)(C)c1csc(NC(=O)c2cc3c(s2)CCN(Cc2ccccc2)C3)n1 | – | – | – | – | – | inhibition at 2.5 µM [4]: 33%; inhibition at 2.5 µM [5]: 22% |
| CC(C)(C)c1csc(NC(=O)c2ccc(C#CCN3CCOCC3)s2)n1 | – | – | 38 | – | – | – |
| Cc1ccc(S(=O)(=O)Nc2nc(C(C)(C)C)cs2)cc1 | – | – | 0 | – | – | – |
| CC(C)(C)c1csc(NC(=O)c2cc3cc(-c4ccccc4Cl)ccc3s2)n1 | 4.11 | > 25 | – | 3.87 | > 25 | IC50 [6]: 9.53 µM |
| O=C(NC1NC(c2ccccc2)=NS1)N1CCOc2ccc(Cl)cc2C1 (stereo not drawn) | – | – | – | – | – | IC50 [9]: 22.1 µM |
| CC(C)(C)c1csc(NC(=O)c2cc3cc(C#N)ccc3s2)n1 | > 25 | > 25 | – | > 25 | > 25 | IC50 [6]: > 25 µM |
| CC(C)(C)c1csc(NC(=O)c2ccc(C#CCCCCCCCCO)s2)n1 | – | – | 52 | – | – | – |
| CC(C)(C)c1csc(NC(=O)c2ccc(-c3cccc([N+](=O)[O-])c3)s2)n1 | – | – | 59 | – | – | – |
| CC(C)(C)c1csc(NC(=O)c2cc3c(s2)CCCC3)n1 | 5.35 | > 25 | – | 4.44 | > 25 | IC50 [10]: 22.7 µM |
| CC(C)(C)c1csc(NC(=O)C2CCCCC2)n1 | 9.8 | > 25 | 30 | – | – | – |
| CN(C(=O)c1cc2c(s1)CCCC2)c1nc(C(C)(C)C)cs1 | – | – | 19 | – | – | – |
| CC(C)(C)c1csc(NC(=O)c2ccc(C#CCCCN3CCOCC3)s2)n1 | – | – | 45 | – | – | – |
| CC(O)C#Cc1ccc(C(=O)Nc2nc(C(C)(C)C)cs2)s1 (stereo not drawn) | – | – | 24 | – | – | – |
| CC(C)(C)c1csc(NC(=O)Cc2csc3ccc(Cl)cc23)n1 | 0.915 | > 25 | – | 5.37 | > 25 | IC50 [6]: 1.11 µM; IC50 [10]: > 25 µM |
| CC(C)(C)c1csc(NC(=O)c2ccc(Cl)cc2)n1 | – | > 25 | – | – | – | inhibition at 2.5 µM [4]: 66%; inhibition at 2.5 µM [5]: 0% |
| C#Cc1ccc(C(=O)Nc2nc(C(C)(C)C)cs2)s1 | – | – | 66 | – | – | – |
| CC(C)(C)C(=O)Nc1nc(C(C)(C)C)cs1 | – | – | 0 | – | – | – |
| CC(C)(C)c1csc(NC(=O)Cc2cn(Cc3ccncc3)c3ccc(Cl)cc23)n1 | 1.41 | > 25 | – | 2.76 | > 25 | IC50 [10]: 11 µM |
| CC(C)(C)c1csc(NC(=O)c2ccc(C#CCCCO)s2)n1 | – | – | 53 | – | – | – |
| Cc1cc(C(=O)Nc2nc(C(C)(C)C)cs2)cs1 | 12.5 | > 25 | – | 9.84 | > 25 | IC50 [6]: 19.1 µM; IC50 [10]: > 25 µM; IC50 [9]: 3.3 µM |
| Cn1c(C(C)(C)C)cs/c1=N\C(=O)c1cc2c(s1)CCCC2 | – | – | 63 | – | – | – |
| CC(C)(C)c1csc(NC(=O)c2cccs2)n1 | – | – | – | – | – | inhibition at 2.5 µM [4]: 23%; inhibition at 2.5 µM [5]: 24% |
| COc1ccc2[nH]c(-c3ccc(C(=O)Nc4nc(C(C)(C)C)cs4)s3)cc2c1 | – | – | – | – | – | inhibition at 2.5 µM [4]: 42%; inhibition at 2.5 µM [5]: 27% |
| O=C(Nc1nc(C2CC3CCC(C3)C2)cs1)c1cc2c(s1)CCCC2 (stereo not drawn) | – | – | 55 | – | – | – |
| CC(C)(C)c1csc(NC(=O)c2ccc(C#C[Si](C)(C)C)s2)n1 | – | – | 54 | – | – | – |

| Compound | IC50 [1] [µM] | IC50 [2] [µM] | inhibition at 2 µM [3] [%] | IC50 [7] [µM] | IC50 [8] [µM] | other results |
| --- | --- | --- | --- | --- | --- | --- |
| COc1ccc2c(c1)cc(-c1ccc(C(=O)Nc3nc(C(C)(C)C)cs3)s1)n2C(=O)OC(C)(C)C | – | – | – | – | – | inhibition at 2.5 µM [4]: 56%; inhibition at 2.5 µM [5]: 0% |
| CC(C)(C)c1csc(NC(=O)c2ccc(-c3cccnc3)s2)n1 | – | – | 19 | – | – | – |
| CC(C)(C)c1csc(NC(=O)Nc2nc(C(C)(C)C)cs2)n1 | – | – | 19 | – | – | – |
| O=C(Nc1nc(-c2ccc(C(F)(F)F)cc2)cs1)c1cc2c(s1)CCCC2 | – | – | 3 | – | – | – |
| CCCC(C)(C)c1csc(NC(=O)Cc2csc3ccc(Cl)cc23)n1 | 1 | > 25 | – | 1.75 | > 25 | IC50 [6]: 0.744 µM |
| Cc1ccc2c(CC(=O)Nc3nc(C(C)(C)C)cs3)csc2c1 | 6.82 | > 25 | – | 22.2 | > 25 | IC50 [6]: 5.9 µM |
| CC(O)CCc1ccc(C(=O)Nc2nc(C(C)(C)C)cs2)s1 (stereo not drawn) | – | – | 30 | – | – | – |
| CC(C)(C)c1csc(NC(=O)Cc2cn(Cc3ccc(F)cc3)c3ccccc23)n1 | 2.11 | > 25 | – | 12.9 | > 25 | IC50 [6]: 1.14 µM |
| CC(C)(C)c1csc(NC(=O)Cc2cn(Cc3ccccc3)c3ccc(Cl)cc23)n1 | 0.506 | > 25 | – | 4.25 | > 25 | IC50 [6]: 0.587 µM; IC50 [10]: 13.1 µM |
| Cc1cccc2c(CC(=O)Nc3nc(C(C)(C)C)cs3)csc12 | 2.42 | > 25 | – | 20.4 | > 25 | IC50 [6]: 3.56 µM |
| CC(C)(C)c1csc(NC(=O)c2ccc(CCCO)s2)n1 | – | – | 31 | – | – | – |
| CC(C)(C)c1csc(NC(=O)c2cc3c(s2)CCNC3)n1 | – | – | – | – | – | inhibition at 2.5 µM [4]: 0%; inhibition at 2.5 µM [5]: 0% |
| CC(C)(C)c1csc(NC(=O)c2ccc(C#CCO)s2)n1 | – | – | 80 | – | – | – |
| CC(C)(C)c1csc(NC(=O)N2CCCOCC2)n1 | – | – | 0 | – | – | – |
| Cc1ccc2scc(CC(=O)Nc3nc(C(C)(C)C)cs3)c2c1 | 1.63 | > 25 | – | 8.27 | > 25 | IC50 [6]: 2.24 µM |
| CC(C)(C)c1csc(NC(=O)Cc2cn(Cc3ccccc3Cl)c3ccc(Cl)cc23)n1 | 0.147 | > 25 | – | 1.15 | > 25 | IC50 [10]: > 25 µM |
| CCC(C)(C)c1csc(NC(=O)Cc2csc3ccc(Cl)cc23)n1 | 1.23 | > 25 | – | 2.75 | > 25 | IC50 [6]: 0.826 µM |
| CC(C)(C)c1csc(NC(=O)c2ccc(-c3cc(Cl)cc(Cl)c3)s2)n1 | – | – | 35 | – | – | – |
| Cc1ccc(C(=O)Nc2nc(C(C)(C)C)cs2)cc1 | – | – | 9 | – | – | – |
| CC(C)(C)c1csc(NC(=O)Cc2csc3ccc(C#N)cc23)n1 | 1.25 | > 25 | – | 7.82 | > 25 | IC50 [6]: 1.56 µM |
| CCC(C)(C)c1csc(NC(=O)Cc2cn(Cc3ccccc3)c3ccc(Cl)cc23)n1 | 0.109 | > 25 | – | 2.2 | > 25 | IC50 [10]: 9.8 µM |
| CC(C)(C)c1csc(NC(=O)N2CCOc3ccccc3C2)n1 | 10.1 | > 25 | 24 | – | – | – |
| CN(C)CC#Cc1ccc(C(=O)Nc2nc(C(C)(C)C)cs2)s1 | – | – | 76 | – | – | – |
| CCOC(C)(C)c1csc(NC(=O)Cc2cn(Cc3ccccc3Cl)c3ccc(Cl)cc23)n1 | – | – | – | 0.968 | > 25 | IC50 [10]: 24.4 µM; IC50 [11]: 1 µM; IC50 [12]: < 5 µM; IC50 [13]: < 5 µM; IC50 [14]: < 5 µM; IC50 [15]: < 5 µM; IC50 [16]: < 5 µM |
| CC(C)(C)c1csc(NC(=O)C(Cc2ccccc2)c2cn(Cc3ccccc3)c3ccc(Cl)cc23)n1 (stereo not drawn) | – | – | – | > 25 | > 25 | IC50 [10]: > 25 µM; IC50 [11]: > 25 µM |
